Experimental data taken from patent US9353150B2, “Substituted pyrazino[1′,2′:1 ,5]pyrrolo[2,3-b]-indole-1,4-diones for cancer treatment” (Massachusetts Institute of Technology, priority 2012, dated 2016).
Where two headings read alike, the source gives them in different places.

Key:
[1] = system: U-937 (hystiocytic lymphoma); test: 72-hour IC50 determination for non-adherent cells using MTS; type: cell-based, human
Protocol: (§1) Certain synthesized compounds were screened for their ability to induce death in two human cancer cell lines: U-937 (leukemic monocyte lymphoma) and HeLa (cervical cancer).
(§2) Cells were grown in media supplemented with fetal bovine serum (FBS) and antibiotics ([…]). Specifically, experiments were performed using the following cell lines and media compositions: U-937, HeLa, H460, and 786-O (RPMI-1640+10% FBS), and MCF7 (EMEM+10% FBS). Cells were incubated at 37° C. in a 5% CO2, 95% humidity atmosphere.
(§3) In a 96-well plate, compounds were pre-added as DMSO stocks in triplicate to achieve a final concentration of 1%. DMSO and cell-free wells served as the live and dead control, respectively. U-937 (5,000 cells/well) cells were distributed in 100 μL media to the compound-containing plate. After 72 hours, cell viability was assessed by adding 20 μL of a PMS/MTS solution (Cory, A. H.; Owen, T. C.; Barltrop, J. A.; Cory, J. G. Cancer Commun. 1991, 3, 207) to each well, allowing the dye to develop at 37° C. until the live control had processed MTS, and reading the absorbance at λ=490 nm. IC50 values were determined from three or more independent experiments using TableCurve (San Jose, Calif.).

MCF-7 (breast carcinoma) = test: 72-hour IC50 determination for adherent cells using sulforhodamine B (SRB); type: cell-based, human; conditions: error is standard deviation of the mean, n ≧ 3, read-out: MCF-7, 72-hour IC50 (Table E1-2)
Protocol: (§4) Certain provided compounds were tested in culture against a panel of three supplementary human cancer cell lines representing three additional tumor histologies (H460, lung carcinoma; 786-O, renal carcinoma; MCF-7, breast carcinoma). As shown in Table E1-2, the ETPs retain their potency across the cell lines. In some embodiments, a provided compound is active in all cell lines. In some embodiments, a provide compound can be used to selectively target certain cells and/or cancers. […] Without the intention to be limited, Applicant notes that certain cell lines could be more sensitive to provided compounds; for example, U-937 and HeLa are slightly more sensitive to the ETPs than the other three cell lines.
as §2
(§5) Adherent cells (HeLa, H460, 786-O, and MCF7) were added into 96-well plates (5,000 cells/well for HeLa cell line; 2,000 cells/well for H460, 786-O, and MCF7 cell lines) in 100 μL media and were allowed to adhere for 2-3 hours. Compounds were solubilized in DMSO as 100× stocks, added directly to the cells (100 μL final volume), and tested over a range of concentrations in triplicate (1% DMSO final) on a half-log scale. Concentrations tested ranged from […] to 10 μM, depending on the potency of the compound. DMSO and cell-free wells served as the live and dead control, respectively. After 72 hours of continuous exposure, the plates were evaluated using the SRB colorimetric assay as described previously (Vichai, V.; Kirtikara, K. Nature Prot. 2006, 1, 1112). Briefly, media was removed from the plate, and cells were fixed by the addition of 100 μL cold 10% trichloroacetic acid in water. After incubating at 4° C. for an hour, the plates were washed in water and allowed to dry. Sulforhodamine B was added as a 0.057% solution in 1% acetic acid (100 μL), and the plates were incubated at room temperature for 30 minutes, washed in 1% acetic acid, and allowed to dry. The dye was solubilized by adding 10 mM Tris base solution (pH 10.5, 200 μL) and incubating at room temperature for 30 minutes. Plates were read at λ=510 nm. IC50 values were determined from three or more independent experiments using TableCurve (San Jose, Calif.).

786-O (renal carcinoma) = test: as above; type: cell-based, human; conditions: error is standard deviation of the mean, n ≧ 3, read-out: 786-O, 72-hour IC50 (Table E1-2)
Protocol: as §4, §2, §5

H460 (lung carcinoma) = test: as above; type: cell-based, human; conditions: error is standard deviation of the mean, n ≧ 3, read-out: H460, 72-hour IC50 (Table E1-2)
Protocol: as §4, §2, §5

human cancer cell lines = test: Anticancer activity in human cancer cell lines, not tied to one cell line; type: cell-based; conditions: for anticancer activity, in words: human cancer cell lines, 72-hour exposure; for change in activity across cell lines: five cell lines of Table E1-2
Protocol: as §1, §4, §5, §3

[2] = system: HeLa (cervical carcinoma); test: 72-hour IC50 determination for adherent cells using sulforhodamine B (SRB); type: cell-based, human
Protocol: as §1, §2, §5

[3] = Stability observed on isolation (concentration / solution); conditions: observed during isolation and characterization
[4] = Homo sapiens, U-937, 72-hour exposure, MTS, error is standard deviation of the mean, n ≧ 3, read-out: U-937, 72-hour IC50 (Table E1-1)
[5] = Homo sapiens, U-937, 72-hour exposure, MTS, error is standard deviation of the mean, n ≧ 3, read-out: U-937, 72-hour IC50 (Table E1-2)
[6] = Homo sapiens, MCF7, 72-hour exposure
[7] = Homo sapiens, 786-0, 72-hour exposure
[8] = Homo sapiens, NCI-H460, 72-hour exposure
[9] = Homo sapiens, HeLa, 72-hour exposure, SRB, error is standard deviation of the mean, n ≧ 3, read-out: HeLa, 72-hour IC50 (Table E1-1)
[10] = Homo sapiens, HeLa, 72-hour exposure, SRB, error is standard deviation of the mean, n ≧ 3, read-out: HeLa, 72-hour IC50 (Table E1-2)
[11] = 72-hour exposure, MTS, error is standard deviation of the mean, n ≧ 3, read-out: U-937, 72-hour IC50 (Table E1-1)
[12] = 72-hour exposure, MTS, error is standard deviation of the mean, n ≧ 3, read-out: U-937, 72-hour IC50 (Table E1-2)
[13] = 72-hour exposure, SRB, error is standard deviation of the mean, n ≧ 3, read-out: HeLa, 72-hour IC50 (Table E1-1)
[14] = 72-hour exposure, SRB, error is standard deviation of the mean, n ≧ 3, read-out: HeLa, 72-hour IC50 (Table E1-2)
[15] = Homo sapiens, U-937, 72 h, read-out: IC50 (U-937)
[16] = Homo sapiens, U-937, 72 h, read-out: U-937, 72-hour IC50 (Table E1-1)
[17] = Homo sapiens, U-937, 72 h, read-out: U-937, 72-hour IC50 (Table E1-2)
[18] = Homo sapiens, HeLa, 72 h, read-out: HeLa, 72-hour IC50 (Table E1-1)
[19] = Homo sapiens, HeLa, 72 h, read-out: HeLa, 72-hour IC50 (Table E1-2)
[20] = Homo sapiens, HeLa, 72 h, read-out: IC50 (HeLa)

Structure (SMILES)	IC50 [1, 4]	IC50 [1, 5]	IC50 (MCF-7 (breast carcinoma); [6])	IC50 (786-O (renal carcinoma); [7])	IC50 (H460 (lung carcinoma); [8])	anticancer activity, in words (human cancer cell lines)	IC50 [2, 9]	IC50 [2, 10]	IC50 [1, 11]	IC50 [1, 12]	IC50 (MCF-7 (breast carcinoma); 72-hour exposure)	IC50 (786-O (renal carcinoma); 72-hour exposure)	IC50 (H460 (lung carcinoma); 72-hour exposure)	IC50 [2, 13]	IC50 [2, 14]	other results
CSS[C@H]1C(=O)N2[C@H]3N(S(=O)(=O)c4ccccc4)c4ccccc4[C@@]3(c3cn(SC)c4ccccc34)C[C@]2(SSC)C(=O)N1C [Compound 45, C3-(Indol-3′-yl) N-(thiomethyl)bis(methyldisulfane)]	14.5 ± 9.1 nM	14.5 ± 9.1 nM	373 ± 75 nM	376 ± 120 nM	252 ± 37 nM	competent anticancer agents	13.7 ± 2.3 nM	13.7 ± 2.3 nM	–	–	–	–	–	–	–	–
CN1C(=O)[C@@]23C[C@]4([C@]56C[C@@]78SS[C@@](CO)(C(=O)N7[C@H]5Nc5ccccc56)N(C)C8=O)c5ccccc5N[C@@H]4N2C(=O)[C@]1(CO)SS3 [Compound 4, (+)-chaetocin A]	–	–	–	–	–	active across the board	–	–	0.81 ± 0.15 nM	0.81 ± 0.15 nM	50 ± 16 nM	26.5 ± 7.7 nM	53 ± 23 nM	6.9 ± 2 nM	6.9 ± 2 nM	–
CN1C(=O)C23CC4(c5c[nH]c6ccccc56)c5ccccc5N(S(=O)(=O)c5ccccc5)C4N2C(=O)C1(C)SC(=S)S3 (stereo not drawn) [Compound 64, C3-(Indo-3′-v)dithiepanethiones]	–	–	–	–	–	competent anticancer agents	–	–	24 ± 12 nM	24 ± 12 nM	210 ± 73 nM	266 ± 85 nM	222 ± 72 nM	25.3 ± 2 nM	25.3 ± 2 nM	–
COc1ccc([C@]23C[C@@]45SS[C@@H](C(=O)N4[C@H]2N(S(=O)(=O)c2ccccc2)c2ccccc23)N(C)C5=O)cc1 [Compound 33, C3-(p-Methoxyphenyl)epidithiodiketopiperazine]	–	–	63 ± 16 nM	83 ± 18 nM	46.7 ± 5.3 nM	–	–	–	–	–	–	–	–	–	–	IC50 [1, 15]: 2.8 to 14.8 nM; IC50 [1, 16]: 5 ± 2.1 nM; IC50 [1, 17]: 5 ± 2.1 nM; change in activity across cell lines (human cancer cell lines): 4 fold; IC50 [2, 18]: 22.2 ± 10.9 nM; IC50 [2, 19]: 22.2 ± 10.9 nM; IC50 [2, 20]: 22 to 75 nM
CN1C(=O)[C@@]23C[C@]4(F)c5ccccc5N(S(=O)(=O)c5ccccc5)[C@@H]4N2C(=O)[C@@H]1SS3 [Compound 31, C3-Fluoro epidithiodiketopiperazines]	–	–	–	–	–	intermediately good activity	–	–	20.7 ± 6.4 nM	20.7 ± 6.4 nM	218 ± 97 nM	368 ± 78 nM	> 1000 nM	1530 ± 440 nM	1530 ± 440 nM	–
CN1C(=O)[C@@]23C[C@]4(c5c[nH]c6ccccc56)c5ccccc5N(S(=O)(=O)c5ccccc5)[C@@H]4N2C(=O)[C@@H]1SSS3 [Compound 27, C3-(Indol-3′-yl) epitrithiodiketopiperazine]	36.6 ± 2.4 nM	36.6 ± 2.4 nM	151 ± 31 nM	145 ± 10 nM	146 ± 6.9 nM	–	27.5 ± 9.2 nM	27.5 ± 9.2 nM	–	–	–	–	–	–	–	stability upon concentration or in solution [3]: tends to degrade
CN1C(=O)[C@@]23C[C@]4(c5c[nH]c6ccccc56)c5ccccc5N(S(=O)(=O)c5ccccc5)[C@@H]4N2C(=O)[C@@H]1SSSS3 [Compound 28, C3-(Indol-3′-yl) epitetrathiodiketopiperazine]	8.3 ± 3.3 nM	8.3 ± 3.3 nM	309 ± 31 nM	344 ± 20 nM	277 ± 43 nM	–	137 ± 86 nM	137 ± 86 nM	–	–	–	–	–	–	–	stability upon concentration or in solution [3]: instability in solution
CN1C(=O)[C@@]23C[C@]4([C@]56C[C@@]78SS[C@@](C)(C(=O)N7[C@H]5Nc5ccccc56)N(C)C8=O)c5ccccc5N[C@@H]4N2C(=O)[C@]1(C)SS3 [Compound 3, (+)-12,12′-dideoxyverticillin A]	–	–	–	–	–	active across the board	–	–	15.5 ± 2.9 nM	15.5 ± 2.9 nM	28.4 ± 4.5 nM	33.5 ± 12.6 nM	42 ± 15 nM	7.2 ± 3 nM	7.2 ± 3 nM	IC50 ([1]; 72-hour exposure, read-out: IC50 (U-937)): 15.5 nM; IC50 ([2]; 72-hour exposure, read-out: IC50 (HeLa)): 7.2 nM
CN1C(=O)[C@@]23C[C@]4(c5cc[nH]c5)c5ccccc5N(S(=O)(=O)c5ccccc5)[C@@H]4N2C(=O)[C@@H]1SS3 [Compound 32, C3-(Pyrrol-3′-yl) epidithiodiketopiperazine]	–	–	61 ± 11 nM	66 ± 23 nM	31.8 ± 2.5 nM	–	–	–	–	–	–	–	–	–	–	IC50 [1, 15]: 2.8 to 14.8 nM; IC50 [1, 16]: 14.8 ± 3.1 nM; IC50 [1, 17]: 14.8 ± 3.1 nM; change in activity across cell lines (human cancer cell lines): 4 fold; IC50 [2, 18]: 26.8 ± 4.8 nM; IC50 [2, 19]: 26.8 ± 4.8 nM; IC50 [2, 20]: 22 to 75 nM
CN1C(=O)[C@@]23C[C@]4(c5c[nH]c6ccccc56)c5ccccc5N[C@@H]4N2C(=O)[C@@H]1SSS3 [Compound 29, C3-(Indol-3′-yl) epitrithiodiketopiperazine]	24.5 ± 7.4 nM	24.5 ± 7.4 nM	217 ± 35 nM	168 ± 34 nM	348 ± 110 nM	–	123 ± 29 nM	123 ± 29 nM	–	–	–	–	–	–	–	stability upon concentration or in solution [3]: tends to degrade
CN1C(=O)[C@@]23C[C@]4(Br)c5ccccc5N(S(=O)(=O)c5ccccc5)[C@@H]4N2C(=O)[C@@H]1SS3 [Compound 30, C3-Bromo epidithiodiketopiperazines]	–	–	–	–	–	intermediately good activity	–	–	5 ± 1.3 nM	5 ± 1.3 nM	152 ± 42 nM	162 ± 35 nM	277 ± 44 nM	44.9 ± 1.3 nM	44.9 ± 1.3 nM	–
CC(=O)S[C@H]1C(=O)N2[C@H]3N(S(=O)(=O)c4ccccc4)c4ccccc4[C@@]3(c3c[nH]c4ccccc34)C[C@]2(SC(C)=O)C(=O)N1C [Compound 44, C3-(Indol-3′-yl)bisthloaeetate]	4.1 ± 0.5 nM	4.1 ± 0.5 nM	103 ± 37 nM	151 ± 7 nM	149 ± 59 nM	competent anticancer agents	17.3 ± 4.5 nM	17.3 ± 4.5 nM	–	–	–	–	–	–	–	–
